For orientation: IC50 means the point on the concentration scale where inhibition reaches its midpoint.

For the experiment, the target named is T1, HEK-Blue-hTLR9 cells (Homo sapiens, UniProt Q9NR96).
T1 construct: expressed in transfected cells; host or cells: HEK-Blue-hTLR9 cells (HEK293-derived reporter line)
T1 sequence (Q9NR96 26-1032): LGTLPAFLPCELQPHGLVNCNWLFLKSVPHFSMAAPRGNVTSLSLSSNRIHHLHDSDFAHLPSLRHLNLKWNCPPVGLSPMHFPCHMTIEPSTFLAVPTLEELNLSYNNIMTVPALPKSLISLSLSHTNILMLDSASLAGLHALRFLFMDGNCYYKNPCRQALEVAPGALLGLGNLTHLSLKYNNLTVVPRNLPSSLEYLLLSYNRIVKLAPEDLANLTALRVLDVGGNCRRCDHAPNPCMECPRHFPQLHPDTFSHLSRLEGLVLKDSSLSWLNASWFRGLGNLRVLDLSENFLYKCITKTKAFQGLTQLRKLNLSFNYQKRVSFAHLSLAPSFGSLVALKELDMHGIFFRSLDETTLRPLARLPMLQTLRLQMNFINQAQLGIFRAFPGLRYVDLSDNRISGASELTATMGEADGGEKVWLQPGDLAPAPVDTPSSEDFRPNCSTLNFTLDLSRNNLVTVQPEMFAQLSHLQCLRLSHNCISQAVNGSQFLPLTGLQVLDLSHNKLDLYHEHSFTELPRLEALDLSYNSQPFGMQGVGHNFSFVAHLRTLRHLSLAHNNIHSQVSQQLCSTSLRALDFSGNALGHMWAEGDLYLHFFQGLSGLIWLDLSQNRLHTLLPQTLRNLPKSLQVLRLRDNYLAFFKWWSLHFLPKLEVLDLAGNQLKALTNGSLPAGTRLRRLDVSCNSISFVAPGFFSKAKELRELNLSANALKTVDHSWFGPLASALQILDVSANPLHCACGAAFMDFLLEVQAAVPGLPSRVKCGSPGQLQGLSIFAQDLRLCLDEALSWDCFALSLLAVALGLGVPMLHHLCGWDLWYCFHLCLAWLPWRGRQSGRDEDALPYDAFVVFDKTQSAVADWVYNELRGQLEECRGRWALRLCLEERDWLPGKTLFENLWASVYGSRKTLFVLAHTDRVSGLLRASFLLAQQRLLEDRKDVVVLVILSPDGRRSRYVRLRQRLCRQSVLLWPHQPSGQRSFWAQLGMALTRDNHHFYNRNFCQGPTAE
Put plainly: HEK-Blue-hTLR9 cell inhibition assay. It counts as cell-based. Particulars: ODN2006 1 µM, 16 h, OD 620 nm, read-out: TLR9 IC50. A digest of the protocol:
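Cells were pre-incubated 4 h, then co-treated 16 h at 37 °C with compound (10 doses, 0.5–10000 nM final) plus R848 (0.8 µM for TLR7, 3 µM for TLR8) or ODN2006 (1 µM, TLR9). Reporter OD620 gave inhibition relative to DMSO blank and agonist-only controls; IC50 came from curve fitting.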

On to `FC(F)(F)c1ccc(N2C[C@]3(c4nnc(C5CCNCC5)o4)C[C@]3(C(F)(F)F)C2)c2cccnc12` [Compound 75, 2-(piperidin-4-yl)-5-((1S,5R)-5-(trifluoromethyl)-3-(8-(trifluoromethyl)quinolin-5-yl)-3-azabicyclo[3.1.0]hexan-1-yl)-1,3,4-oxadiazole], for which the IC50 was greater than 1000 nM.
The figure for `FC(F)(F)c1ccc(N2C[C@]3(c4nnc(C5CCN(CC6CC6)CC5)o4)C[C@]3(C(F)(F)F)C2)c2cccnc12` [Compound 76, 2-(1-(cyclopropylmethyl)piperidin-4-yl)-5-((1S,5R)-5-(trifluoromethyl)-3-(8-(trifluoromethyl)quinolin-5-yl)-3-azabicyclo[3.1.0]hexan-1-yl)-1,3,4-oxadiazole] is greater than 1000 nM; for `NC(=O)CN1CCC(c2nnc([C@]34CN(c5ccc(C(F)(F)F)c6ncccc56)C[C@@]3(C(F)(F)F)C4)o2)CC1` [Compound 77, 2-(4-(5-((1S,5R)-5-(trifluoromethyl)-3-(8-(trifluoromethyl)quinolin-5-yl)-3-azabicyclo[3.1.0]hexan-1-yl)-1,3,4-oxadiazol-2-yl)piperidin-1-yl)acetamide] it is greater than 10000 nM.
The figure for `CN1[C@@H]2CC[C@H]1C[C@H](c1nnc([C@]34CN(c5ccc(C(F)(F)F)c6ncccc56)C[C@@]3(C(F)(F)F)C4)o1)C2` [Compound 79, 2-((1R,3S,5S)-8-methyl-8-azabicyclo[3.2.1]octan-3-yl)-5-((1S,5R)-5-(trifluoromethyl)-3-(8-(trifluoromethyl)quinolin-5-yl)-3-azabicyclo[3.1.0]hexan-1-yl)-1,3,4-oxadiazole] is greater than 1000 nM; for `N#Cc1ccc(N2C[C@]3(c4nnc(C5CCNCC5)o4)C[C@]3(C(F)(F)F)C2)c2c(F)cnn12` [Compound 80, 3-fluoro-4-((1S,5R)-1-(5-(piperidin-4-yl)-1,3,4-oxadiazol-2-yl)-5-(trifluoromethyl)-3-azabicyclo[3.1.0]hexan-3-yl)pyrazolo[1,5-a]pyridine-7-carbonitrile] it is greater than 1000 nM.
The figure for `NC12CCC(c3nnc([C@]45CN(c6ccc(C(F)(F)F)c7ncccc67)C[C@@]4(C(F)(F)F)C5)o3)(CC1)CC2` [Compound 81, 4-(5-((1S,5R)-5-(trifluoromethyl)-3-(8-(trifluoromethyl)quinolin-5-yl)-3-azabicyclo[3.1.0]hexan-1-yl)-1,3,4-oxadiazol-2-yl)bicyclo[2.2.2]octan-1-amine] is greater than 1000 nM.
For the molecule `CN1CCC(c2nnc([C@]34CN(c5ccc(C#N)n6ncc(Br)c56)C[C@@]3(C(F)(F)F)C4)o2)CC1` [Compound 83, 3-bromo-4-((1S,5R)-1-(5-(1-methylpiperidin-4-yl)-1,3,4-oxadiazol-2-yl)-5-(trifluoromethyl)-3-azabicyclo[3.1.0]hexan-3-yl)pyrazolo[1,5-a]pyridine-7-carbonitrile], the IC50 was greater than 1000 nM.
Consider `CN1CCC(c2nnc([C@]34CN(c5ccc(C#N)n6ncc(Cl)c56)C[C@@]3(C(F)(F)F)C4)o2)CC1` [Compound 84, 3-chloro-4-((1S,5R)-1-(5-(1-methylpiperidin-4-yl)-1,3,4-oxadiazol-2-yl)-5-(trifluoromethyl)-3-azabicyclo[3.1.0]hexan-3-yl)pyrazolo[1,5-a]pyridine-7-carbonitrile], for which the IC50 is greater than 1000 nM.
Regarding `CN1CCC(c2nnc([C@]34CN(c5c(Br)cc(C#N)n6ncc(Br)c56)C[C@@]3(C(F)(F)F)C4)o2)CC1` [Compound 85, 3,5-dibromo-4-((1S,5R)-1-(5-(1-methylpiperidin-4-yl)-1,3,4-oxadiazol-2-yl)-5-(trifluoromethyl)-3-azabicyclo[3.1.0]hexan-3-yl)pyrazolo[1,5-a]pyridine-7-carbonitrile], the IC50 is greater than 1000 nM.
The figure for `CN1CCC(c2nnc([C@]34CN(c5c(Br)cc(C#N)n6nccc56)C[C@@]3(C(F)(F)F)C4)o2)CC1` [Compound 86, 5-bromo-4-((1S,5R)-1-(5-(1-methylpiperidin-4-yl)-1,3,4-oxadiazol-2-yl)-5-(trifluoromethyl)-3-azabicyclo[3.1.0]hexan-3-yl)pyrazolo[1,5-a]pyridine-7-carbonitrile] is greater than 1000 nM.
The figure for `CN1CCC(c2nnc([C@]34CN(c5ccc(C(F)(F)F)n6nccc56)C[C@@]3(C(F)(F)F)C4)o2)CC1` [Compound 87, 2-(1-methylpiperidin-4-yl)-5-((1S,5R)-5-(trifluoromethyl)-3-(7-(trifluoromethyl)pyrazolo[1,5-a]pyridin-4-yl)-3-azabicyclo[3.1.0]hexan-1-yl)-1,3,4-oxadiazole] is greater than 1000 nM; for `CN1CCC(F)(c2nnc([C@]34CN(c5ccc(C#N)n6nccc56)C[C@@]3(C(F)(F)F)C4)o2)CC1` [Compound 90, 4-((1S,5R)-1-(5-(4-fluoro-1-methylpiperidin-4-yl)-1,3,4-oxadiazol-2-yl)-5-(trifluoromethyl)-3-azabicyclo[3.1.0]hexan-3-yl)pyrazolo[1,5-a]pyridine-7-carbonitrile] it is greater than 1000 nM.
For the molecule `CN1CCC(c2nnc([C@]34CN(c5ccc(C#N)c6ncnn56)C[C@@]3(C(F)(F)F)C4)o2)CC1` [Compound 91, 5-((1S,5R)-1-(5-(1-methylpiperidin-4-yl)-1,3,4-oxadiazol-2-yl)-5-(trifluoromethyl)-3-azabicyclo[3.1.0]hexan-3-yl)-[1,2,4]triazolo[1,5-a]pyridine-8-carbonitrile], the IC50 was greater than 10000 nM.
The figure for `CN1CCC(Oc2nnc([C@]34CN(c5ccc(C(F)(F)F)c6ncccc56)C[C@@]3(C(F)(F)F)C4)o2)CC1` [Compound 92, 2-((1-methylpiperidin-4-yl)oxy)-5-((1S,5R)-5-(trifluoromethyl)-3-(8-(trifluoromethyl)quinolin-5-yl)-3-azabicyclo[3.1.0]hexan-1-yl)-1,3,4-oxadiazole] is greater than 1000 nM.
Regarding `CN1CCC(Oc2nnc([C@]34CN(c5ccc(OC(F)(F)F)c6ncccc56)C[C@@]3(C(F)(F)F)C4)o2)CC1` [Compound 93, 2-((1-methylpiperidin-4-yl)oxy)-5-((1S,5R)-5-(trifluoromethyl)-3-(8-(trifluoromethoxy)quinolin-5-yl)-3-azabicyclo[3.1.0]hexan-1-yl)-1,3,4-oxadiazole], the IC50 was greater than 10000 nM.
Turning to `CN1CCC(O)(c2nnc([C@]34CN(c5ccc(C(F)(F)F)c6ncccc56)C[C@@]3(C(F)(F)F)C4)o2)CC1` [Compound 94, 1-methyl-4-(5-((1S,5R)-5-(trifluoromethyl)-3-(8-(trifluoromethyl)quinolin-5-yl)-3-azabicyclo[3.1.0]hexan-1-yl)-1,3,4-oxadiazol-2-yl)piperidin-4-ol], the IC50 is greater than 1000 nM.
`CN1CC(Cc2nnc([C@]34CN(c5ccc(C(F)(F)F)c6ncccc56)C[C@@]3(C(F)(F)F)C4)o2)C1` [Compound 95, 2-((1-methylazetidin-3-yl)methyl)-5-((1S,5R)-5-(trifluoromethyl)-3-(8-(trifluoromethyl)quinolin-5-yl)-3-azabicyclo[3.1.0]hexan-1-yl)-1,3,4-oxadiazole]: the IC50 is greater than 1000 nM.
The figure for `FC(F)(F)Oc1ccc(N2C[C@]3(c4nnc(C5(F)CCNCC5)o4)C[C@]3(C(F)(F)F)C2)c2cccnc12` [Compound 96, 2-(4-fluoropiperidin-4-yl)-5-((1S,5R)-3-(8-(trifluoromethoxy)quinolin-5-yl)-5-(trifluoromethyl)-3-azabicyclo[3.1.0]hexan-1-yl)-1,3,4-oxadiazole] is greater than 1000 nM.

For the origin of these results see patent EP4806891A1 (Kangbaida (Sichuan) Biotechnology Co., Ltd., priority 2023, dated 2025).
